Source: patent US11267825B2 (AICURIS GMBH & CO. KG, priority 2017, dated 2022)
Structures can show the parent of a compound that is named as a salt.

These molecules were tested on HBV (assay: Determination of HBV DNA from the supernatants of HepAD38 cells (anti-HBV activity)). Settings: Hepatitis B virus, 144 h; HBV DNA in HepAD38 supernatant at day 6; read-out: Cell Activity (EC50).
Format: cell-based, hepatitis B virus
Description: Determination of HBV DNA from the Supernatants of HepAD38 Cells
The anti-HBV activity was analysed in the stable transfected cell line HepAD38, which has been described to secrete high levels of HBV virion particles (Ladner et al., 1997). In brief, HepAD38 cells were cultured at 37° C. at 5% CO2 and 95% humidity in 200 μl maintenance medium, which was Dulbecco's modified Eagle's medium/Nutrient Mixture F-12 (Gibco, Karlsruhe), 10% fetal bovine serum (PAN Biotech Aidenbach) supplemented with 50 μg/ml penicillin/streptomycin (Gibco, Karlsruhe), 2 mM L-glutamine (PAN Biotech, Aidenbach), 400 μg/ml G418 (AppliChem, Darmstadt) and 0.3 μg/ml tetracycline. Cells were subcultured once a week in a 1:5 ratio, but were usually not passaged more than ten times. For the assay 60,000 cells were seeded in maintenance medium without any tetracycline into each well of a 96-well plate and treated with serial half-log dilutions of test compound. To minimize edge effects the outer 36 wells of the plate were not used but were filled with assay medium. On each assay plate six wells for the virus control (untreated HepAD38 cells) and six wells for the cell control (HepAD38 cells treated with 0.3 μg/ml tetracycline) were allocated, respectively. In addition, one plate set with reference inhibitors like BAY 41-4109, entecavir, and lamivudine instead of screening compounds were prepared in each experiment. In general, experiments were performed thrice in triplicates. At day 6 HBV DNA from 100 μl filtrated cell culture supernatant (AcroPrep Advance 96 Filter Plate, […] Supor membran, PALL GmbH, Dreieich) was automatically purified on the MagNa Pure LC instrument using the MagNA Pure 96 DNA and Viral NA Small Volume Kit (Roche Diagnostics, Mannheim) according to the instructions of the manufacturer. EC50 values were calculated from relative copy numbers of HBV DNA. In brief, 5 μl of the 100 μl eluate containing HBV DNA were subjected to PCR LC480 Probes Master Kit (Roche) together with 1 μM antisense primer […], 0.5 μM sense primer […], 0.3 μM hybprobes […]-FL and LC640-[…]-PH (TIBMolBiol, Berlin) to a final volume of 12.5 μl. The PCR was performed on the Light Cycler 480 real time system (Roche Diagnostics, Mannheim) using the following protocol: Pre-incubation for 1 min at 95° C., amplification: 40 cycles×(10 sec at 95° C., 50 sec at 60° C., 1 sec at 70° C.), cooling for 10 sec at 40° C. Viral load was quantitated against known standards using HBV plasmid DNA of pCH-9/3091 (Nassal et al., 1990, Cell 63: 1357-1363) and the LightCycler 480 SW 1.5 software (Roche Diagnostics, Mannheim) and EC50 values were calculated using non-linear regression with GraphPad Prism 6 (GraphPad Software Inc., La Jolla, USA).
Molecule `O=C(c1cc2ccccc2[nH]1)N1CCc2nc(Cl)sc2C1` [Example 207, 2-{2-chloro-4H,5H,6H,7H-[1,3]thiazolo[5,4-c]pyridine-5-carbonyl}-1H-indole] has an EC50 of less than 100000 nM. With `CCc1c(F)ccc2[nH]c(C(=O)N3CCc4nc(NCC5CCOC5)sc4C3)cc12` (stereo not drawn) [Example 256, 5-(4-ethyl-5-fluoro-1H-indole-2-carbonyl)-N-[(oxolan-3-yl)methyl]-4H,5H,6H,7H-[1,3]thiazolo[5,4-c]pyridin-2-amine] the EC50 was less than 100000 nM. With `CC(O)c1ccc(F)c2[nH]c(C(=O)N3CCc4nc(NCC5CCOC5)sc4C3)cc12` (stereo not drawn) [Example 257, 1-[7-fluoro-2-(2-{[(oxolan-3-yl)methyl]amino}-4H,5H,6H,7H-[1,3]thiazolo[5,4-c]pyridine-5-carbonyl)-1H-indol-4-yl]ethan-1-ol] the EC50 was less than 100000 nM. `CC(C)CC(CO)CNc1nc2c(s1)CN(C(=O)c1cc3ccccc3[nH]1)CC2` (stereo not drawn) [Example 287, 2-({[5-(1H-indole-2-carbonyl)-4H,5H,6H,7H-[1,3]thiazolo[5,4-c]pyridin-2-yl]amino}methyl)-4-methylpentan-1-ol] gave an EC50 of less than 1000 nM. With `CC1(C(=O)Nc2nc3c(s2)CN(C(=O)c2cc4cc(F)c(Cl)cc4[nH]2)CC3)CC1` [Example 304, N-[5-(6-chloro-5-fluoro-1H-indole-2-carbonyl)-4H,5H,6H,7H-[1,3]thiazolo[5,4-c]pyridin-2-yl]-1-methylcyclopropane-1-carboxamide] the EC50 was less than 1000 nM. Molecule `CC1(C(=O)Nc2nc3c(s2)CN(C(=O)c2cc4c(Cl)cc(F)cc4[nH]2)CC3)CC1` [Example 305, N-[5-(4-chloro-6-fluoro-1H-indole-2-carbonyl)-4H,5H,6H,7H-[1,3]thiazolo[5,4-c]pyridin-2-yl]-1-methylcyclopropane-1-carboxamide] has an EC50 of less than 1000 nM. `CCc1cc(F)cc2[nH]c(C(=O)N3CCc4nc(NC(=O)C5(C)CC5)sc4C3)cc12` [Example 306, N-[5-(4-ethyl-6-fluoro-1H-indole-2-carbonyl)-4H,5H,6H,7H-[1,3]thiazolo[5,4-c]pyridin-2-yl]-1-methylcyclopropane-1-carboxamide] gave an EC50 of less than 1000 nM. With `Cc1cc(F)cc2[nH]c(C(=O)N3CCc4nc(NC(=O)C5(C)CC5)sc4C3)cc12` [Example 307, N-[5-(6-fluoro-4-methyl-1H-indole-2-carbonyl)-4H,5H,6H,7H-[1,3]thiazolo[5,4-c]pyridin-2-yl]-1-methylcyclopropane-1-carboxamide] the EC50 was less than 1000 nM. Work on `CC1(C(=O)Nc2nc3c(s2)CN(C(=O)c2cc4c(Cl)cccc4[nH]2)CC3)CC1` [Example 308, N-[5-(4-chloro-1H-indole-2-carbonyl)-4H,5H,6H,7H-[1,3]thiazolo[5,4-c]pyridin-2-yl]-1-methylcyclopropane-1-carboxamide] yielded an EC50 of less than 1000 nM. `CCOC(=O)C1(CNc2nc3c(s2)CN(C(=O)c2cc4ccccc4[nH]2)CC3)CC1` [Example 317, Ethyl 1-({[5-(1H-indole-2-carbonyl)-4H,5H,6H,7H-[1,3]thiazolo[5,4-c]pyridin-2-yl]amino}methyl)cyclopropane-1-carboxylate] was tested, and the EC50 was 1000 to 10000 nM. In the case of `O=C(c1cc2ccccc2[nH]1)N1CCc2nc(NC(=O)C3(F)CC3)sc2C1` [Example 337, 1-fluoro-N-[5-(1H-indole-2-carbonyl)-4H,5H,6H,7H-[1,3]thiazolo[5,4-c]pyridin-2-yl]cyclopropane-1-carboxamide], the EC50 is reported as less than 1000 nM. `O=C(c1cc2c(Cl)cc(F)cc2[nH]1)N1CCc2nc(N[C@H]3CC[C@@H](O)CC3)sc2C1` [Example 343, (1s,4s)-4-{[5-(4-chloro-6-fluoro-1H-indole-2-carbonyl)-4H,5H,6H,7H-[1,3]thiazolo[5,4-c]pyridin-2-yl]amino}cyclohexan-1-ol] gave an EC50 of less than 1000 nM. `O=C(c1cc2ccccc2[nH]1)N1CCc2nc(NCC3(C(=O)O)CC3)sc2C1` [Example 345, 1-({[5-(1H-indole-2-carbonyl)-4H,5H,6H,7H-[1,3]thiazolo[5,4-c]pyridin-2-yl]amino}methyl)cyclopropane-1-carboxylic acid] showed an EC50 of 1000 to 10000 nM. In the case of `O=C(c1cc2ccccc2[nH]1)N1CCc2nc(NC(=O)C3(O)CC3)sc2C1` [Example 346, 1-hydroxy-N-[5-(1H-indole-2-carbonyl)-4H,5H,6H,7H-[1,3]thiazolo[5,4-c]pyridin-2-yl]cyclopropane-1-carboxamide], the EC50 is reported as less than 1000 nM. In the case of `COCC1(Nc2nc3c(s2)CN(C(=O)c2cc4ccccc4[nH]2)CC3)CCC1` [Example 347, 5-(1H-indole-2-carbonyl)-N-[1-(methoxymethyl)cyclobutyl]-4H,5H,6H,7H-[1,3]thiazolo[5,4-c]pyridin-2-amine], the EC50 is reported as less than 1000 nM. For `O=C(c1cc2ccccc2[nH]1)N1CCc2nc(N[C@@H]3CCCC[C@@H]3O)sc2C1` [Example 348, (1S,2R)-2-{[5-(1H-indole-2-carbonyl)-4H,5H,6H,7H-[1,3]thiazolo[5,4-c]pyridin-2-yl]amino}cyclohexan-1-ol], the EC50 was less than 1000 nM. `O=C(c1cc2ccccc2[nH]1)N1CCc2nc(NCCn3ccnc3)sc2C1` [Example 349, N-[2-(1H-imidazol-1-yl)ethyl]-5-(1H-indole-2-carbonyl)-4H,5H,6H,7H-[1,3]thiazolo[5,4-c]pyridin-2-amine] showed an EC50 of less than 1000 nM. `O=C(c1cc2ccccc2[nH]1)N1CCc2nc(N[C@H]3CCC[C@@H](O)C3)sc2C1` [Example 350, (1R,3S)-3-{[5-(1H-indole-2-carbonyl)-4H,5H,6H,7H-[1,3]thiazolo[5,4-c]pyridin-2-yl]amino}cyclohexan-1-ol] was tested, and the EC50 was less than 1000 nM. In the case of `O=C(CC1CCOC1)Nc1nc2c(s1)CN(C(=O)c1cc3ccccc3[nH]1)CC2` (stereo not drawn) [Example 351, N-[5-(1H-indole-2-carbonyl)-4H,5H,6H,7H-[1,3]thiazolo[5,4-c]pyridin-2-yl]-2-(oxolan-3-yl)acetamide], the EC50 is reported as less than 1000 nM. `CC(C)c1cccc2[nH]c(C(=O)N3CCc4nc(NCC5(O)CCC5)sc4C3)cc12` [Example 368, 1-[({5-[4-(propan-2-yl)-1H-indole-2-carbonyl]-4H,5H,6H,7H-[1,3]thiazolo[5,4-c]pyridin-2-yl}amino)methyl]cyclobutan-1-ol] gave an EC50 of less than 1000 nM. Work on `O=C(c1cc2cc(F)c(F)cc2[nH]1)N1CCc2nc(NCC3(O)CCC3)sc2C1` [Example 369, 1-({[5-(5,6-difluoro-1H-indole-2-carbonyl)-4H,5H,6H,7H-[1,3]thiazolo[5,4-c]pyridin-2-yl]amino}methyl)cyclobutan-1-ol] yielded an EC50 of less than 1000 nM. `O=C(c1cc2cc(F)c(Cl)cc2[nH]1)N1CCc2nc(NCC3(O)CCC3)sc2C1` [Example 373, 1-({[5-(6-chloro-5-fluoro-1H-indole-2-carbonyl)-4H,5H,6H,7H-[1,3]thiazolo[5,4-c]pyridin-2-yl]amino}methyl)cyclobutan-1-ol] gave an EC50 of less than 1000 nM. With `O=C(c1cc2c(C(F)(F)F)cccc2[nH]1)N1CCc2nc(NCC3(O)CCC3)sc2C1` [Example 374, 1-[({5-[4-(trifluoromethyl)-1H-indole-2-carbonyl]-4H,5H,6H,7H-[1,3]thiazolo[5,4-c]pyridin-2-yl}amino)methyl]cyclobutan-1-ol] the EC50 was less than 1000 nM. `CC(=O)N1CC(C(=O)Nc2nc3c(s2)CN(C(=O)c2cc4ccccc4[nH]2)CC3)C1` [Example 382, 1-acetyl-N-[5-(1H-indole-2-carbonyl)-4H,5H,6H,7H-[1,3]thiazolo[5,4-c]pyridin-2-yl]azetidine-3-carboxamide] gave an EC50 of less than 1000 nM. `CN1CC(C(=O)Nc2nc3c(s2)CN(C(=O)c2cc4ccccc4[nH]2)CC3)C1` [Example 383, N-[5-(1H-indole-2-carbonyl)-4H,5H,6H,7H-[1,3]thiazolo[5,4-c]pyridin-2-yl]-1-methylazetidine-3-carboxamide] showed an EC50 of 1000 to 10000 nM. Molecule `O=C(Nc1nc2c(s1)CN(C(=O)c1cc3c(F)c(F)ccc3[nH]1)CC2)C1CCOCC1` [Example 398, N-[5-(4,5-difluoro-1H-indole-2-carbonyl)-4H,5H,6H,7H-[1,3]thiazolo[5,4-c]pyridin-2-yl]oxane-4-carboxamide] has an EC50 of less than 1000 nM.

Same assay, conditions: Hepatitis B virus, HePAD38, 144 h, read-out: Cell Activity (EC50)
`O=C(Nc1nc2c(s1)CN(C(=O)c1cc3ccccc3[nH]1)CC2)C1CNC1` [Example 386, N-[5-(1H-indole-2-carbonyl)-4H,5H,6H,7H-[1,3]thiazolo[5,4-c]pyridin-2-yl]azetidine-3-carboxamide hydrochloride] showed an EC50 of 1000 to 10000 nM.
